One may read the Kd as the concentration at which binding is half-saturated. Higher therefore signals lower affinity.

Consider three compounds from publication PMC5489766 (Journal of Ginseng Research, 2016).

Series [1] concerns the target T1, HSA (Homo sapiens, UniProt P02768). Put plainly: Fluorescence quenching of HSA by G-Rh2. The class given is binding. The conditions noted are these: for KSV: HSA 1 μM, pH 7.4; for Kd: K (binding constant).
For series [2], the target named is T2, BSA (Bos taurus, UniProt P02769). Put plainly: Fluorescence quenching of BSA by G-Rh2. The series is classed as binding, bovine. The conditions noted are these: for KSV: BSA 1 μM, pH 7.4; for Kd: K (binding constant).
T2 sequence (P02769 25-607): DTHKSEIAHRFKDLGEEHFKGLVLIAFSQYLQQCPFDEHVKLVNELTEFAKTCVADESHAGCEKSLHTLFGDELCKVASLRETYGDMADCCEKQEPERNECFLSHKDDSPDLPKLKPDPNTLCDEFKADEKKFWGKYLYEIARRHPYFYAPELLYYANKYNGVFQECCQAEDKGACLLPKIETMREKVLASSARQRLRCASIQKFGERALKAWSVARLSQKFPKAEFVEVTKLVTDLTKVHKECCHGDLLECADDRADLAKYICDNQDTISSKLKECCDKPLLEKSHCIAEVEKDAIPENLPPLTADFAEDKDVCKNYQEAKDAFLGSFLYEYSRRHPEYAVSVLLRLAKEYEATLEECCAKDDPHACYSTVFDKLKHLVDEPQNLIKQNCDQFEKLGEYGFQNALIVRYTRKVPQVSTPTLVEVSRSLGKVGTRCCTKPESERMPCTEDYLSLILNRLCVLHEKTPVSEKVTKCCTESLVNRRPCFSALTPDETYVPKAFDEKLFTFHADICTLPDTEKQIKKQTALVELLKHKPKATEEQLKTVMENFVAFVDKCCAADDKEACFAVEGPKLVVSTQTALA
In a further series the test system is HepG2 cells. Put plainly: MTT assay, cytotoxic activity with or without serum albumin. The series is classed as cell-based. The conditions noted are these: HepG2, 7.5 μg/mL, 48 h.
Series [3] has as its system PARP cleavage in HepG2 cells. The series is described as follows: Immunoblotting of PARP cleavage. Particulars: HepG2, 7.5 μg/mL, BSA or bovine serum, 4 h. The series is classed as cell-based. A general note: A western blot detects proteins with antibodies after separation by electrophoresis.
For series [4] the following is noted: general statement; cited from earlier work.
The target in series [5] is T1, HSA. Put plainly: UV-Vis absorption spectra of HSA with G-Rh2. Particulars: HSA 25 μM, G-Rh2 50 μM, 298K, pH7.4. The series is classed as binding.
Series [6] addresses T2, BSA. Put plainly: UV-Vis absorption spectra of BSA with G-Rh2. The class given is binding, bovine. The conditions noted are these: BSA 25 μM, G-Rh2 50 μM, 298K, pH7.4.

T1 sequence (P02768 25-609): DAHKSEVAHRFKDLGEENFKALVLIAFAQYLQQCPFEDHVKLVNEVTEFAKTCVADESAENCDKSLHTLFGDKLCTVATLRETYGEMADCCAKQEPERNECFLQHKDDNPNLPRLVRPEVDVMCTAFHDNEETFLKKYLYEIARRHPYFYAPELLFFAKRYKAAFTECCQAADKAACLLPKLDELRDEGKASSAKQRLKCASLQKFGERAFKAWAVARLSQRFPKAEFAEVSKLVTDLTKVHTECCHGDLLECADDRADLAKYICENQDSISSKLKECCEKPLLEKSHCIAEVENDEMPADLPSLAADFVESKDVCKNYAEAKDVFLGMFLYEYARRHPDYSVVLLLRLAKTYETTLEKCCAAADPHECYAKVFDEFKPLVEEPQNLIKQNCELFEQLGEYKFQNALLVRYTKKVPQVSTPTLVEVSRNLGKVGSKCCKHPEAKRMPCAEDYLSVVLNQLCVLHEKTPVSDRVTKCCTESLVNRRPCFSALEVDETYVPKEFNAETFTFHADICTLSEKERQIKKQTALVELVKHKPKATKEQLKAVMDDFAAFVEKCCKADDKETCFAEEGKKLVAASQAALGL

On to `CC(C)=CCC[C@](C)(O)[C@H]1CC[C@]2(C)[C@@H]1[C@H](O)C[C@@H]1[C@@]3(C)CC[C@H](O[C@@H]4O[C@H](CO)[C@@H](O)[C@H](O)[C@H]4O)C(C)(C)[C@@H]3CC[C@]12C` [(20R) G-Rh2, Ginsenoside Rh2], for which the KSV on HSA [1] (298 K) was 4.5120 10^4 M^−1; at HSA [1] (303 K), 6.9016 10^4 M^−1; on HSA [1] (308 K), 7.2751 10^4 M^−1. Further, the kq on HSA [1] (HSA, 298 K) is listed as 4.5120 10^12 M^−1 s^−1; at HSA [1] (HSA, 303 K), 6.9016 10^12 M^−1 s^−1; on HSA [1] (HSA, 308 K), 7.2751 10^12 M^−1 s^−1. Moreover, the “n (number of binding sites)” value at HSA [1] (HSA, 298 K) was 1.131; on HSA [1] (HSA, 303 K) it was 1.0626; on HSA [1] (HSA, 308 K), 1.0284. Further, the Kd is 4.85 µM at HSA [1] (HSA, 298 K); 6.89 µM at HSA [1] (HSA, 303 K); 11.5 µM on HSA [1] (HSA, 308 K).

`CC(C)=CCC[C@](C)(O)[C@H]1CC[C@]2(C)[C@@H]1[C@H](O)C[C@@H]1[C@@]3(C)CC[C@H](O[C@@H]4O[C@H](CO)[C@@H](O)[C@H](O)[C@H]4O)C(C)(C)[C@@H]3CC[C@]12C` [(20S) G-Rh2, Ginsenoside Rh2]: the KSV on HSA [1] (298 K) is recorded as 4.9578 10^4 M^−1; at HSA [1] (303 K) it was 6.5117 10^4 M^−1; on HSA [1] (308 K), 7.2510 10^4 M^−1; at BSA [2] (298 K), 7.3470 10^4 M^−1; on BSA [2] (303 K), 11.6703 10^4 M^−1; on BSA [2] (308 K), 9.2848 10^4 M^−1. Besides, the kq on HSA [1] (HSA, 298 K) is 4.9578 10^12 M^−1 s^−1; on HSA [1] (HSA, 303 K), 6.5117 10^12 M^−1 s^−1; on HSA [1] (HSA, 308 K) it was 7.2510 10^12 M^−1 s^−1; on BSA [2] (BSA, 298 K), 7.3470 10^12 M^−1 s^−1; at BSA [2] (BSA, 303 K) it was 11.6703 10^12 M^−1 s^−1; at BSA [2] (BSA, 308 K), 9.2848 10^12 M^−1 s^−1. Besides, the “n (number of binding sites)” value at HSA [1] (HSA, 298 K) came out at 1.2027; on HSA [1] (HSA, 303 K), 1.1449; on HSA [1] (HSA, 308 K), 1.0786; at BSA [2] (BSA, 298 K), 1.1329; on BSA [2] (BSA, 303 K), 1.0192; on BSA [2] (BSA, 308 K), 0.9702. In addition, the “number of binding site” value on HSA [1] (HSA, temperature not stated, listed as (20S)-Rh2) was 1; at BSA [2] (BSA, temperature not stated (abstract)) it was 1. Further, the Kd at HSA [1] (HSA, 298 K) is 1.83 µM; at HSA [1] (HSA, 303 K), 2.86 µM; at HSA [1] (HSA, 308 K), 5.39 µM; on BSA [2] (BSA, 298 K), 2.77 µM; at BSA [2] (BSA, 303 K) it was 7.01 µM; on BSA [2] (BSA, 308 K) it was 15.5 µM. In addition, the Cell viability result is recorded as “significantly increased in an albumin-dose-dependent manner” with HepG2 cells (increased concentration of albumin by adding HSA, BSA or bovine serum) and “killed almost all cells” in the series on HepG2 cells (without SA). Moreover, the PARP cleavage result is on record as “totally inhibited PARP cleavage” in series [3] (with 1.68mg/mL albumin by adding HSA) and “caused the cleavage of poly-adenosine diphosphate-ribose polymerase (PARP)” in series [3] (without HSA). For the same compound, the water solubility entry in series [4] was “very low”.

Regarding `CC(C)=CCC[C@](C)(O)[C@H]1CC[C@]2(C)[C@@H]1[C@H](O)C[C@@H]1[C@@]3(C)CC[C@H](O[C@@H]4O[C@H](CO)[C@@H](O)[C@H](O)[C@H]4O)C(C)(C)[C@@H]3CC[C@]12C` [G-Rh2, Ginsenoside Rh2], the “UV-Vis absorption of protein on adding G-Rh2” value at HSA [5] and on BSA [6] was “significantly increased with a slight blue shift of the maximum absorption wavelength” throughout.
